Laboratory results published in article PMC4598760 (Biomolecules, 2015).
Like-named read-outs stand apart in the source and are kept apart here.

Experiments:
[1] = test system: A/Udorn/307/1972 (A/Udorn72, H3N2)
[2] = test system: A/Philippines/2/82/X-79 (A/Philips, H3N2)
[3] = test system: influenza virus A/Mem71 (H3N1); conditions: for Kd: read-out: K*d (apparent)
[4] = test system: hemagglutinin (HA) on immobilized influenza virus A/Mem71 (H3N1); format: binding, influenza A virus A/Memphis/1971

Molecule: Neu5Gcα2-6Galβ1-4Glcβ-Biotin [OS-20]
- virus binding to surface-bound glycan (in words) [1]: binds
- virus binding to surface-bound glycan (in words) [2]: do not

Molecule: Neu5Acα2-3Galβ1-4Glcβ-Biotin [OS-11]
- K*off (apparent) [3]: 4.1e-06 s⁻¹
- K*on (apparent) [3]: 7200 M⁻¹ s⁻¹
- Kd [3]: 0.58 nM

Molecule: Kdnα2-6Galβ1-4Glcβ-Biotin [OS-19]
- virus binding to surface-bound glycan (in words) [3]: does not bind

Molecule: Neu5Acα2-6Galβ1-4Glcβ-Biotin [OS-21]
- K*off (apparent) [3]: <3e-06 s⁻¹
- K*on (apparent) [3]: 7000 M⁻¹ s⁻¹
- Kd [3]: < 0.43 nM

Molecule: CC(=O)N[C@H]1[C@H]([C@H](O)[C@H](O)CO)O[C@@](O[C@H]2[C@@H](O)[C@@H](CO)O[C@@H](O[C@H]3[C@H](O)[C@@H](O)C(O)O[C@@H]3CO)[C@@H]2O)(C(=O)O)C[C@@H]1O (stereo partly drawn) [α2-3 sialyllactose (OS-11), α2-3-sialyllactose]
- Kd [4]: 26.3 mM
- Koff [4]: 0.0736 s⁻¹
- Kd ([4]; monovalent, 288 K): 2.6 mM
- Kd ([4]; monovalent, 293 K): 6.4 mM
- Kd ([4]; monovalent, 296 K): 18.8 mM

Molecule: CC(=O)N[C@H]1[C@H]([C@H](O)[C@H](O)CO)O[C@@](OC[C@H]2O[C@@H](O[C@H]3[C@H](O)[C@@H](O)C(O)O[C@@H]3CO)[C@H](O)[C@@H](O)[C@H]2O)(C(=O)O)C[C@@H]1O (stereo partly drawn) [α2-6 sialyllactose (OS-21), α2-6-sialyllactose]
- Kd [4]: 47.6 mM
- Koff [4]: 0.128 s⁻¹
- Kd ([4]; monovalent, 288 K): 6.8 mM
- Kd ([4]; monovalent, 293 K): 11.2 mM
- Kd ([4]; monovalent, 296 K): 23.8 mM

Molecule: Neu5Acα2-6GalNAcα-Biotin [OS-18]
- virus binding to surface-bound glycan (in words) [3]: binds
